Test system: SMN2-linked luciferase-reporter gene construct
Experiment: SMN Splice Reporter Assay (SMN2-linked luciferase reporter)
Assay type: cell-based
Settings: cervical carcinoma cell lines, SMN2 splice luciferase reporter
Procedure, shortened: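 Cervical carcinoma cells carrying an SMN2-luciferase splicing reporter, in-frame only with exon 7 inclusion, were treated with compound. Luciferase activity reported as fold increase over untreated transformed cells, with EC50 derived.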

Row | EC50 [nM] | SMILES
1 | 2630 | COc1ccc2c(c1)C(=O)N(c1ccc3c(c1)cc(C)n3C(C)C)C2 [Example 123714]
2 | 101 | CCC(C)c1ccc2c(c1)C(=O)N(c1ccc3c(ccn3C)c1)C2 (centres unmarked) [Example 122182]
3 | 43 | CN(C)c1ccc2c(c1)C(=O)N(c1ccc3ccn(C)c3c1)C2 [Example 124771]
4 | 142 | O=C1c2cc(OC(F)F)ccc2CN1c1ccc2ncccc2c1 [Example 120790]
5 | 88 | Cc1cc2cc(N3Cc4ccc(Cl)cc4C3=O)ccc2n1C [Example 123011]
6 | 47 | Cn1ccc2ccc(N3Cc4ccc(N5CCCC5)cc4C3=O)cc21 [Example 124596]
7 | 20 | COc1ccc2c(c1)C(=O)N(c1ccc3c(c1)CCCN3C)C2 [Example 120121]
8 | 203 | CC(=O)Nc1ccc2c(c1)C(=O)N(c1ccc3ccn(C)c3c1)C2 [Example 121505]
9 | 187 | Cn1ccc2cc(N3Cc4ccc(N5CCCC5)cc4C3=O)ccc21 [Example 122317]
10 | 9 | CN(C)c1ccc2c(c1)C(=O)N(c1ccc3ncccc3c1)C2 [Example 124032]
11 | 347 | COc1ccc2c(c1)C(=O)N(c1ccc3cc(C)n(C)c3c1)C2 [Example 124597]
12 | 24 | CN(C)c1ccc2c(c1)C(=O)N(c1ccc3c(ccn3C)c1)C2 [Example 124429]
13 | 30 | COc1ccc2c(c1)C(=O)N(c1ccc3ncccc3c1)C2 [Example 120286]
14 | 99 | Cc1cc2cc(N3Cc4ccc(N(C)C)cc4C3=O)ccc2n1C [Example 123707]
15 | 114 | COc1ccc2c(c1)C(=O)N(c1ccc3c(c1)cc(C)n3C)C2 [Example 120595]

More lines, now with the values behind:

Row | SMILES | EC50 [nM]
16 | CCCc1ccc2c(c1)C(=O)N(c1ccc3c(ccn3C)c1)C2 [Example 119522] | 68
17 | COc1ccc2c(c1)C(=O)N(c1ccc3cc[nH]c3c1)C2 [Example 119869] | 106
18 | COc1ccc2c(c1)C(=O)N(c1ccc3ccsc3c1)C2 [Example 118739] | 102
19 | Cn1ccc2cc(N3Cc4ccc(OC(F)F)cc4C3=O)ccc21 [Example 119537] | 112
20 | COc1ccc2c(c1)C(=O)N(c1ccc3c(ccn3C)c1)C2 [Example 118417] | 45

Same assay, conditions: fold-increase of luciferase over baseline reading of transformed cells without any test compound

Row | SMILES | Fold Increase
21 | COc1ccc2c(c1)C(=O)N(c1ccc3c(c1)cc(C)n3C(C)C)C2 [Example 123714] | 1.863
22 | CCC(C)c1ccc2c(c1)C(=O)N(c1ccc3c(ccn3C)c1)C2 (centres unmarked) [Example 122182] | 1.539
23 | CN(C)c1ccc2c(c1)C(=O)N(c1ccc3ccn(C)c3c1)C2 [Example 124771] | 1.689
24 | O=C1c2cc(OC(F)F)ccc2CN1c1ccc2ncccc2c1 [Example 120790] | 1.926
25 | Cc1cc2cc(N3Cc4ccc(Cl)cc4C3=O)ccc2n1C [Example 123011] | 1.481
26 | Cn1ccc2ccc(N3Cc4ccc(N5CCCC5)cc4C3=O)cc21 [Example 124596] | 1.681
27 | CCCc1ccc2c(c1)C(=O)N(c1ccc3c(ccn3C)c1)C2 [Example 119522] | 1.557
28 | COc1ccc2c(c1)C(=O)N(c1ccc3c(c1)CCCN3C)C2 [Example 120121] | 1.702
29 | CC(=O)Nc1ccc2c(c1)C(=O)N(c1ccc3ccn(C)c3c1)C2 [Example 121505] | 1.817
30 | Cn1ccc2cc(N3Cc4ccc(N5CCCC5)cc4C3=O)ccc21 [Example 122317] | 1.47
31 | COc1ccc2c(c1)C(=O)N(c1ccc3cc[nH]c3c1)C2 [Example 119869] | 1.716
32 | CN(C)c1ccc2c(c1)C(=O)N(c1ccc3ncccc3c1)C2 [Example 124032] | 1.659
33 | COc1ccc2c(c1)C(=O)N(c1ccc3cc(C)n(C)c3c1)C2 [Example 124597] | 1.358
34 | CN(C)c1ccc2c(c1)C(=O)N(c1ccc3c(ccn3C)c1)C2 [Example 124429] | 1.594
35 | COc1ccc2c(c1)C(=O)N(c1ccc3ncccc3c1)C2 [Example 120286] | 1.713
36 | COc1ccc2c(c1)C(=O)N(c1ccc3ccsc3c1)C2 [Example 118739] | 1.617
37 | Cn1ccc2cc(N3Cc4ccc(OC(F)F)cc4C3=O)ccc21 [Example 119537] | 1.604
38 | Cc1cc2cc(N3Cc4ccc(N(C)C)cc4C3=O)ccc2n1C [Example 123707] | 1.635
39 | COc1ccc2c(c1)C(=O)N(c1ccc3c(c1)cc(C)n3C)C2 [Example 120595] | 1.531
40 | COc1ccc2c(c1)C(=O)N(c1ccc3c(ccn3C)c1)C2 [Example 118417] | 1.485

Test system: SMN-containing gems in type 1 SMA patient fibroblasts (3813 cells)
Experiment: SMN-containing gem count in SMA patient fibroblasts
Assay type: cell-based, human
Settings: 0.1 μM compound, 48 hours, 3813 fibroblasts
Excerpt: SMN protein can be found in punctate nuclear particles called “gems” (Liu and Dreyfuss, EMBO J, 15 (14): 3555-3565 (1996)). In fibroblast cells derived from SMA patients, the number of gems corresponds to disease severity as follows: severe type 1 patients have approximately 5 gems per 100 nuclei; mild type 3 patients have 20-50 gems per 100 nuclei; normal individuals have approximately 100-150 gems per 100 nuclei (Coovert et al., Hum Mol Genet, 6 (8): 1205-1214 (1997), Young et al., Exp Cell Res, 265 (2): 252-261 (2001)).
Gems are detectable by immunohistochemistry and gem counts in patient fibroblasts have been used to test the ability of compounds to increase SMN protein levels (Mattis et al., Hum Genet, 120: 589-601 (2006)). Following these methods, fibroblast cells from a type 1 SMA patient (3813 cells, Coriell Cell Repositories) were treated for 48 hours with a compound of the invention. The cells were then fixed and incubated with a monoclonal antibody against SMN (4B7, Wolstencroft et al., Hum Mol Genet, 14: 1199-1210 (2005)). A FITC-conjugated anti-mouse secondary antibody was used to visualize the labeled gems. A positive control in these experiments was provided by fibroblasts from the same patient treated with 1000 μM valproic acid.

Row | SMILES | Average number of gems per 100 nuclei
41 | COc1ccc2c(c1)C(=O)N(c1ccc3c(c1)CCCN3C)C2 [Example 120121] | 16
42 | COc1ccc2c(c1)C(=O)N(c1ccc3ncccc3c1)C2 [Example 120286] | 132
43 | Cn1ccc2cc(N3Cc4ccc(OC(F)F)cc4C3=O)ccc21 [Example 119537] | 31
44 | Cc1cc2cc(N3Cc4ccc(N(C)C)cc4C3=O)ccc2n1C [Example 123707] | 53

Same assay, conditions: 1 μM compound, 48 hours, 3813 fibroblasts

Row | SMILES | Average number of gems per 100 nuclei
45 | COc1ccc2c(c1)C(=O)N(c1ccc3c(c1)cc(C)n3C(C)C)C2 [Example 123714] | 84
46 | CCC(C)c1ccc2c(c1)C(=O)N(c1ccc3c(ccn3C)c1)C2 (centres unmarked) [Example 122182] | 18
47 | CN(C)c1ccc2c(c1)C(=O)N(c1ccc3ccn(C)c3c1)C2 [Example 124771] | 50
48 | O=C1c2cc(OC(F)F)ccc2CN1c1ccc2ncccc2c1 [Example 120790] | 27
49 | Cc1cc2cc(N3Cc4ccc(Cl)cc4C3=O)ccc2n1C [Example 123011] | 37
50 | Cn1ccc2ccc(N3Cc4ccc(N5CCCC5)cc4C3=O)cc21 [Example 124596] | 43
51 | CCCc1ccc2c(c1)C(=O)N(c1ccc3c(ccn3C)c1)C2 [Example 119522] | 6
52 | CC(=O)Nc1ccc2c(c1)C(=O)N(c1ccc3ccn(C)c3c1)C2 [Example 121505] | 47
53 | Cn1ccc2cc(N3Cc4ccc(N5CCCC5)cc4C3=O)ccc21 [Example 122317] | 45
54 | COc1ccc2c(c1)C(=O)N(c1ccc3cc[nH]c3c1)C2 [Example 119869] | 49
55 | CN(C)c1ccc2c(c1)C(=O)N(c1ccc3ncccc3c1)C2 [Example 124032] | 65
56 | COc1ccc2c(c1)C(=O)N(c1ccc3cc(C)n(C)c3c1)C2 [Example 124597] | 42
57 | CN(C)c1ccc2c(c1)C(=O)N(c1ccc3c(ccn3C)c1)C2 [Example 124429] | 44
58 | COc1ccc2c(c1)C(=O)N(c1ccc3ccsc3c1)C2 [Example 118739] | 76
59 | COc1ccc2c(c1)C(=O)N(c1ccc3c(c1)cc(C)n3C)C2 [Example 120595] | 32

Same assay, conditions: 3 μM compound, 48 hours, 3813 fibroblasts

Row | SMILES | Average number of gems per 100 nuclei
60 | COc1ccc2c(c1)C(=O)N(c1ccc3c(ccn3C)c1)C2 [Example 118417] | 53

Test system: translational stop codon read-through, human SMN2 open reading frame-luciferase
Experiment: Translational read-through luciferase reporter assay (luciferase preceded by the open reading frame of the human SMN2 gene)
Assay type: cell-based
Settings: not given
Excerpt: This assay was similar in design to that described in WO 01/44516 A2. This was a cell-based luciferase reporter assay designed to detect translational read-through via insertion of a translational stop codon within the coding sequence that includes luciferase. In the presence of compounds that promote read-through of translational stop codons, active luciferase was produced and detected via chemiluminescence. Compounds of the invention typically were active in three versions of this assay: luciferase reporter containing a UGA stop codon, luciferase reporter containing a UAG stop codon, which is the first stop codon downstream of the improper splice junction between exons 6 and 8 in the human SMN2 transcript, and luciferase preceded by the open reading frame of the human SMN2 gene.

Row | EC50 [nM] | SMILES | maximal fold induction
61 | 1900 | COc1ccc2c(c1)C(=O)N(c1ccc3c(c1)cc(C)n3C(C)C)C2 [Example 123714] | 1.18
62 | 4210 | CN(C)c1ccc2c(c1)C(=O)N(c1ccc3ccn(C)c3c1)C2 [Example 124771] | 1.8
63 | 2640 | Cc1cc2cc(N3Cc4ccc(Cl)cc4C3=O)ccc2n1C [Example 123011] | 1.89
64 | 91 | Cc1cc2cc(N3Cc4ccc(N(C)C)cc4C3=O)ccc2n1C [Example 123707] | 1.44

Further lines, the compound ahead of its results:

Row | SMILES | EC50 [nM] | maximal fold induction
65 | CCCc1ccc2c(c1)C(=O)N(c1ccc3c(ccn3C)c1)C2 [Example 119522] | 1840 | 1.73
66 | CN(C)c1ccc2c(c1)C(=O)N(c1ccc3ncccc3c1)C2 [Example 124032] | – | 1.02
67 | Cn1ccc2cc(N3Cc4ccc(OC(F)F)cc4C3=O)ccc21 [Example 119537] | 1350 | 2.12

Test system: not given
Experiment: not given
Settings: not given

Row | melting point | SMILES
68 | 209 to 213 °C | COc1ccc2c(c1)C(=O)N(c1ccc3c(c1)cc(C)n3C)C2 [Example 18, 2-(1,2-dimethyl-1H-indol-5-yl)-6-methoxyisoindolin-1-one]
69 | 195 to 197 °C | CN(C)c1ccc2c(c1)C(=O)N(c1ccc3ccsc3c1)C2 [Example 30, 2-(benzo[b]thiophen-6-yl)-6-(dimethylamino)isoindolin-1-one]
70 | 193 to 194 °C | CC(C)Cc1ccc2c(c1)C(=O)N(c1ccc3c(ccn3C)c1)C2 [Example 12, 6-isobutyl-2-(1-methyl-1H-indol-5-yl)isoindolin-1-one]
71 | 180 to 182 °C | Cn1ccc2cc(N3Cc4ccc(OC(F)F)cc4C3=O)ccc21 [Example 2, 6-(difluoromethoxy)-2-(1-methyl-1H-indol-5-yl)isoindolin-1-one]
72 | 144 to 148 °C | COc1ccc2c(c1)C(=O)N(c1ccc3c(ccn3C(C)C)c1)C2 [Example 17, 2-(1-isopropyl-1H-indol-5-yl)-6-methoxyisoindolin-1-one]
73 | 159 to 163 °C | COc1ccc2c(c1)C(=O)N(c1ccc3c(c1)NCCN3)C2 [Example 37, 6-methoxy-2-(1,2,3,4-tetrahydroquinoxalin-6-yl)isoindolin-1-one]
74 | 141 to 143 °C | COc1ccc2c(c1)C(=O)N(c1ccc3ccoc3c1)C2 [Example 48, 2-(benzofuran-6-yl)-6-methoxyisoindolin-1-one]
75 | 123 to 127 °C | COc1ccc2c(c1)C(=O)N(c1ccc3c(c1)CCCN3C)C2 [Example 45, 6-methoxy-2-(1-methyl-1,2,3,4-tetrahydroquinolin-6-yl)isoindolin-1-one]
76 | 144 to 145 °C | C/C=C(/C)c1ccc2c(c1)C(=O)N(c1ccc3c(ccn3C)c1)C2 [Example 14, (Z)-6-(but-2-en-2-yl)-2-(1-methyl-1H-indol-5-yl)isoindolin-1-one]
77 | 198 to 199 °C | COc1ccc2c(c1)C(=O)N(c1cnc3c(ccn3C)c1)C2 [Example 43, 6-methoxy-2-(1-methyl-1H-pyrrolo[2,3-b]pyridin-5-yl)isoindolin-1-one]
78 | 355 to 360 °C (dec.) | COc1ccc2c(c1)C(=O)N(c1ccc3[nH]c(=O)[nH]c3c1)C2 [Example 35, 5-(6-methoxy-1-oxoisoindolin-2-yl)-1H-benzo[d]imidazol-2(3H)-one]
79 | 268 to 270 °C | COc1ccc2c(c1)C(=O)N(c1ccc3c(c1)n(C)c(=O)n3C)C2 [Example 36, 5-(6-methoxy-1-oxoisoindolin-2-yl)-1,3-dimethyl-1H-benzo[d]imidazol-2(3H)-one]
80 | 170 to 176 °C | O=C1c2ccccc2CN1c1ccc2c(c1)OCCO2 [Example 46, 2-(2,3-dihydrobenzo[b][1,4]dioxin-6-yl)isoindolin-1-one]
81 | 200 to 205 °C | Cn1ccc2cc(N3Cc4ccc(OC(F)(F)C(F)Cl)cc4C3=O)ccc21 (centres unmarked) [Example 4, 6-(2-chloro-1,1,2-trifluoroethoxy)-2-(1-methyl-1H-indol-5-yl)isoindolin-1-one]
82 | 268 to 270 °C | CN(C)c1ccc2c(c1)C(=O)N(c1ccc3c(c1)CCN3C)C2 [Example 31, 6-(dimethylamino)-2-(1-methylindolin-5-yl)isoindolin-1-one]
83 | 175 to 177 °C | COc1ccc2c(c1)C(=O)N(c1ccc3cnn(C)c3c1)C2

— US20100267712A1, “ISOINDOLINE COMPOUNDS FOR THE TREATMENT OF SPINAL MUSCULAR ATROPHY AND OTHER USES” (The United States of America, as represented by the …, priority 2007, published 2010)
